How the values were obtained:
[1] = target: T1, CFTR in F508del/F508del primary CF hBE cells (Homo sapiens, UniProt P13569, DEL508-508); test: Ussing chamber electrophysiology assay of CFTR potentiation in F508del/F508del CF bronchial epithelial cells (27° C.); type: cell-based
T1 construct: Primary cystic fibrosis human bronchial epithelial (CF hBE) cells were expanded and cultured; endogenous in cells; host or cells: primary CF human bronchial epithelial cells, genotype F508del/F508del
Procedure, shortened: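 Short-circuit current was recorded under zero-voltage clamp across primary CF bronchial epithelia cultured >30 days at air/liquid interface, bathed apically and basolaterally in HEPES-buffered saline. Sequential additions: amiloride (30 uM), forskolin (10 uM), compound at 4 increasing levels, CFTRinh-172 (20 uM). Responses normalised between DMSO (0%) and maximal positive-control potentiator (100%).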

[2] = target: T2, recombinant F508del V470 CFTR in Fischer rat thyroid (FRT) cells (Homo sapiens, UniProt P13569, DEL508-508); test: FRT ion flux assay of F508del CFTR potentiation; type: cell-based; conditions: FRT cells expressing F508del V470 CFTR, forskolin 20 uM, 27° C. pre-incubation
T2 construct: expressed in transfected cells
Procedure, shortened: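 Potentiation read as YFP quench ~21 s after iodide buffer addition, as second/initial fluorescence ratio normalised between DMSO (0%) and reference potentiator (100%).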

T2 sequence (P13569 with tags, fused parts or gaps DEL508-508): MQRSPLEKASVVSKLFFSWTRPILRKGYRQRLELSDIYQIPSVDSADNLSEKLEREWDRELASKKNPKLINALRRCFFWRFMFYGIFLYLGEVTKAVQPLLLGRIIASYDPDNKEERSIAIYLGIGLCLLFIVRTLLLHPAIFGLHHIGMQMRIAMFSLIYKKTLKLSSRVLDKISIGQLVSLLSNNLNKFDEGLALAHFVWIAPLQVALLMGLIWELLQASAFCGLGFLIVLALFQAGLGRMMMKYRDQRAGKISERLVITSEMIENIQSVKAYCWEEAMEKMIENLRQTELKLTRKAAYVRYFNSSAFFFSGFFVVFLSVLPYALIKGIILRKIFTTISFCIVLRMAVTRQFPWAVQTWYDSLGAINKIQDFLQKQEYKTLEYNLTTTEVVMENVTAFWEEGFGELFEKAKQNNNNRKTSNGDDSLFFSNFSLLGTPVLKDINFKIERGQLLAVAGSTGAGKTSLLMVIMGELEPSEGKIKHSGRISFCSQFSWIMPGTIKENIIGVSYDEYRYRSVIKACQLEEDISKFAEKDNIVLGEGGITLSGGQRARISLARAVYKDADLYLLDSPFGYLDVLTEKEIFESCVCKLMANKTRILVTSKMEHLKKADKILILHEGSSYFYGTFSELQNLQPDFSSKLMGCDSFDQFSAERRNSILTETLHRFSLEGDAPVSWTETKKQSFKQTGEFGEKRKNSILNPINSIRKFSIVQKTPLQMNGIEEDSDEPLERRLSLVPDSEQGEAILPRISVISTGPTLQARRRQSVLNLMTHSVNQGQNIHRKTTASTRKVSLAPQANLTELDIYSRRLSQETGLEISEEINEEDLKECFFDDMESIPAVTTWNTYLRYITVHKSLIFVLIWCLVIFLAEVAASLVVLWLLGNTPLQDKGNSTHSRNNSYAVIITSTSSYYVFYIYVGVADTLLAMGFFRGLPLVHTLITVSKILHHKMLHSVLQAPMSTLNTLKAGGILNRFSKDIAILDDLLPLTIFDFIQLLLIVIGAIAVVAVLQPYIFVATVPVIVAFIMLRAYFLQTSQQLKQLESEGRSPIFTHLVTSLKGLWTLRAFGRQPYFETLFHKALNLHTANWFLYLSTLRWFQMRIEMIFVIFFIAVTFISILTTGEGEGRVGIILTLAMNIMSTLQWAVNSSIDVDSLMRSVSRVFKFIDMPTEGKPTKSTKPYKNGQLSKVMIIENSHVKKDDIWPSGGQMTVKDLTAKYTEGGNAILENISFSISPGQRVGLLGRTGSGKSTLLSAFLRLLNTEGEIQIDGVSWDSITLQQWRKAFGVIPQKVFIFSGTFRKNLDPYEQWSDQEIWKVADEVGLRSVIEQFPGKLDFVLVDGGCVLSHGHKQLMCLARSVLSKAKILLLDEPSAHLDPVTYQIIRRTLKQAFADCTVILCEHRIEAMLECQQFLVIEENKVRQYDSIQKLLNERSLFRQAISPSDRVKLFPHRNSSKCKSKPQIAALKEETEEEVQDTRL
T1 sequence (P13569 with tags, fused parts or gaps DEL508-508): as above

Compound	EC50 [1] [µM]	EC50 [2] [µM]
CCC(c1cn(-c2ccc(F)cc2F)nn1)n1cc(-c2cncnc2OC)c2c(N)ncnc21 (single isomer, unassigned; enantiomer 2) [Example 160, (−) 7-{1-[1-(2,4-Difluorophenyl)-1H-1,2,3-triazol-4-yl]propyl}-5-(4-methoxypyrimidin-5-yl)-7H-pyrrolo[2,3-d]pyrimidin-4-amine, enantiomer 2]	0.593	0.452
CCC(c1cn(-c2ccc(F)cc2F)nn1)n1cc(-c2cc(F)cnc2OC)c2c(N)ncnc21 (single isomer, unassigned; enantiomer 2) [Example 164, 7-{1-[1-(2,4-Difluorophenyl)-1H-1,2,3-triazol-4-yl]propyl}-5-(5-fluoro-2-methoxypyridin-3-yl)-7H-pyrrolo[2,3-d]pyrimidin-4-amine, enantiomer 2]	0.00458	0.00818
CCC(c1cn(-c2ccc(F)cc2F)nn1)n1cc(-c2cnc(OC)c(F)c2)c2c(N)ncnc21 (single isomer, unassigned; enantiomer 2) [Example 166, 7-{1-[1-(2,4-Difluorophenyl)-1H-1,2,3-triazol-4-yl]propyl}-5-(5-fluoro-6-methoxypyridin-3-yl)-7H-pyrrolo[2,3-d]pyrimidin-4-amine, enantiomer 2]	0.009	0.0246
CCC(c1cn(-c2ccc(F)cc2F)nn1)n1cc(-c2cnc(C(F)F)nc2)c2c(N)ncnc21 (single isomer, unassigned; enantiomer 2) [Example 168, 5-[2-(Difluoromethyl)pyrimidin-5-yl]-7-{1-[1-(2,4-difluorophenyl)-1H-1,2,3-triazol-4-yl]propyl}-7H-pyrrolo[2,3-d]pyrimidin-4-amine, enantiomer 2]	2.33	2.95
CCC(c1cn(-c2cccc(F)c2F)nn1)n1cc(-c2cc(F)cnc2OC)c2c(N)ncnc21 (single isomer, unassigned; enantiomer 2) [Example 170, 7-{1-[1-(2,3-Difluorophenyl)-1H-1,2,3-triazol-4-yl]propyl}-5-(5-fluoro-2-methoxypyridin-3-yl)-7H-pyrrolo[2,3-d]pyrimidin-4-amine, enantiomer 2]	0.0488	0.214
CCC(c1cn(-c2cc(F)ccc2F)nn1)n1cc(-c2cc(F)cnc2OC)c2c(N)ncnc21 (single isomer, unassigned; enantiomer 2) [Example 172, 7-{1-[1-(2,5-Difluorophenyl)-1H-1,2,3-triazol-4-yl]propyl}-5-(5-fluoro-2-methoxypyridin-3-yl)-7H-pyrrolo[2,3-d]pyrimidin-4-amine, enantiomer 2]	0.0776	0.203
CCC(c1cnn(-c2ccccc2F)c1)n1cc(-c2cnc(C(F)(F)F)nc2)c2c(N)ncnc21 (single isomer, unassigned; enantiomer 2) [Example 176, 7-{(1-[1-(2-Fluorophenyl)-1H-pyrazol-4-yl]propyl}-5-[2-(trifluoromethyl)pyrimidin-5-yl]-7H-pyrrolo[2,3-d]pyrimidin-4-amine, enantiomer 2]	0.106	0.204
CC(c1cc(-c2ccccc2F)no1)n1cc(-c2ccc(Cl)cc2)c2c(N)ncnc21 (single isomer, unassigned; enantiomer 2) [Example 182, (−)-5-(4-Chlorophenyl)-7-{1-[3-(2-fluorophenyl)-1,2-oxazol-5-yl]ethyl}-7H-pyrrolo[2,3-d]pyrimidin-4-amine, enantiomer 2]	0.446	0.468
COc1ncncc1-c1cn(C(c2cn(-c3ccccc3F)nn2)C2CC2)c2ncnc(N)c12 (single isomer, unassigned; enantiomer 2) [Example 300, (−) 7-{Cyclopropyl[1-(2-fluorophenyl)-1H-1,2,3-triazol-4-yl]methyl}-5-(4-methoxypyrimidin-5-yl)-7H-pyrrolo[2,3-d]pyrimidin-4-amine, enantiomer 2]	0.453	0.154

From patent US12612409B2, “Pyrrolopyrimidines as CFTR potentiators” (Cystic Fibrosis Foundation, priority 2016, dated 2026)
